Reference: PMC5427923, “A novel CCR2 antagonist inhibits atherogenesis in apoE deficient mice by achieving high receptor occupancy” (Scientific Reports, 2017)

Assays:
CCR2 = test: Pharmacokinetics-based prediction of target occupancy; parameters: species or system mouse; conditions: calculated/simulated from plasma concentrations, single dose 5 mg/kg i.p., for 24 hours
Procedure: The target occupancy was calculated for each measurement of the drug concentration, according to equation (1), in which [C] is the concentration of the drug in the blood and KD is the drug target affinity.1 TargetOccupancy(%)=[C]/[C]+KD×100%
In addition, a simple mathematical model was used to simulate target occupancy for the observed in vivo pharmacokinetics and in vitro binding kinetics according to the equations in the next section (equations (3–5)).
To determine the maximal value of k off that would prolong the receptor occupancy even further, we used equation (2)[28], in which BF represents the percentage of target occupancy divided by 100 and t 1/2el represents the plasma elimination half-life (0.693/k el). In this case we set BF to 0.90, as 90% represents the minimum value of target occupancy to achieve efficacy. To obtain the elimination rate constant of compound 15a, a linear regression analysis of the natural logarithm of the concentrations versus time was performed, and the slope coefficient was used as the elimination rate constant k el.2 koff<0.693⋅(1−BF)/t1/2el
The concentrations of unbound drug in the blood [C] and target-bound drug [LR] were modeled according to equations (3–5). […]
The concentration of the target-bound drug is calculated according to equation (5):5 d[LR]/dt=kon⋅[C]⋅[Rfree]−koff⋅[LR] […]

apoE−/− mice [1] = test: Body weight, cholesterol, liver toxicity markers and plasma cytokines in treated apoE−/− mice; type: in vivo, mouse
Procedure: (§1) To determine the effect of the CCR2 antagonist on atherosclerotic lesion development, mice were fed a Western type diet, containing 0.25% cholesterol and 15% cocoabutter (SDS, Sussex, UK) throughout the experiment starting two week before surgery. Carotid artery plaque formation was induced by perivascular collar placement as described previously[46] and from the time of surgery, the mice received daily intraperitoneal injections containing 15a (5 mg/kg/day) or vehicle control (n = 9–10 per group). During the experiment, total body weight and weight gain were measured. Serum total cholesterol levels were determined using an enzymatic colorimetric assay according to manufacturer’s protocol (Roche Diagnostics). Precipath (standardized serum; Boehringer Mannheim, Germany) was used as an internal standard. Plasma cytokine levels were measured by ELISA according to manufacturer’s protocol (BD Biosciences). Blood was collected weekly via tail cut. Total cell count and cellular differentiation patterns in blood were analyzed using an automated XT-2000iV veterinary hematology analyzer (Sysmex Europe GMBH, Norderstedt, Germany). After erythrocyte lysis, blood leukocyte suspensions were stained for surface markers, after which their expression was determined by FACS analysis (FACS Canto, BD Biosciences). After 4 weeks of lesion development, the animals were anaesthetized and blood was collected. After in situ perfusion through the left cardiac chamber, the carotid arteries and hearts were harvested.
(§2) Macrophage content of the lesions in carotid arteries and aortic roots was stained using a rat monoclonal MOMA2 antibody (1:1000, Serotec, Kidlington, Oxford, UK). Macrophage positive areas were analyzed using computer-assisted colour-gated analysis, and related to the total intimal surface area (Leica QWin). Liver cryosections of 10 µm thick were prepared and subsequently stained with hematoxylin-eosin to analyze liver morphology, which was assessed using a Leica DMRE microscope (Leica Ltd., Cambridge, England).
Total RNA was extracted from homogenized liver tissue with the guanidium thiocyanate-phenol-bromochloropropane extraction method. RNA concentration, purity and integrity were examined by nanodrop (Nanodrop® Technologies). RNA was reverse transcribed by M-MuLV reverse transcriptase (RevertAid, MBI Fermentas, Landsmeer, The Netherlands) and used for quantitative analysis of the mouse genes ALT, AST, apoH and GC with an ABI PRISM 7700 Taqman apparatus (Applied Biosystems). For qPCR primer pairs refer to Supplementary Table S1.

apoE−/− mice [2] = test: Atherosclerotic lesion development in Western-type diet fed apoE−/− mice (carotid collar, aortic root); type: in vivo, mouse
From the text: Male apoE^−/− mice (10–12 weeks old), obtained from the local animal breeding facility (Gorlaeus Laboratories, Leiden, The Netherlands), were fed a Western type diet, containing 0.25% cholesterol and 15% cocoabutter (SDS, Sussex, UK).
as §1
Carotid artery cryosections of 5 µm thick were prepared, which were stained with hematoxylin-eosin to determine plaque size and necrotic core size. Morphometric analysis was performed on sections throughout the atherosclerotic lesion (100 µm apart) and at the site of maximal stenosis using Leica Qwin image analysis software. The relative necrotic area was defined as the a-cellular, debris-rich plaque area as percentage of total plaque area, and also quantified using Leica QWin software.
The hearts were dissected just below the atria and sectioned perpendicular to the axis of the aorta, starting within the heart and working in the direction of the aortic arch. Once the aortic root was identified by the appearance of aortic valve leaflets, 10 µm sections were collected. Mean lesion area (in µm^2) of the aortic root was calculated from six Oil-Red-O stained sections in distal direction starting at the point where all three aortic valve leaflets first appeared.
as §2

hCCR2b = conditions: cited from earlier work

With CC(C)[C@]1(C(=O)N2CCc3ccc(C(F)(F)F)cc3C2)CC[C@@H](N[C@@H]2CCc3cc(Br)ccc32)C1 [15a, ((1S,3R)-3-(((R)-5-bromo-2,3-dihydro-1H-inden-1-yl)amino)-1-isopropylcyclopentyl)(7-(trifluoromethyl)-3,4-dihydroisoquinolin-2(1H)-yl)methanone] the “target occupancy (CCR2)” value (CCR2) was > 90%, the body weight (apoE−/− mice [1]; 5 mg/kg/day i.p., four weeks) was “not significantly affected” and the body weight gain (apoE−/− mice [1]; 5 mg/kg/day i.p., four weeks) was “not affected”. The “plasma total cholesterol levels” value (apoE−/− mice [1]; 5 mg/kg/day i.p., four weeks) was “not significantly affected”, the “liver mRNA levels of AST” value (apoE−/− mice [1]; P = 0.02) was “somewhat decreased” and the “liver mRNA expression of the toxicity markers ALT, apoH and GC” value (apoE−/− mice [1]; mouse, in vivo) was “did not affect”. For the same compound, the “plasma CCL2 levels” value (apoE−/− mice [1]; mouse, in vivo) was “increased”, the “plasma IL-6 levels” value (apoE−/− mice [1]; mouse, in vivo) was “remained unaffected” and the liver morphology (apoE−/− mice [1]; versus controls) was “similar”. The “atherosclerotic plaque size in the carotid artery at the site of maximal stenosis” value (apoE−/− mice [2]; 5 mg/kg/day i.p., 4 weeks, controls 64.4 ± 11.8) was 17.6 ± 4.1 *10^3 µm^2, the relative necrotic area (apoE−/− mice [2]; carotid artery plaques, controls 35.3 ± 8.2%) was 7.6 ± 4.5% and the “plaque volume throughout the carotid arteries” value (apoE−/− mice [2]; controls 1.75 ± 0.33) was 0.46 ± 0.13 *10^7 µm^3. The “aortic root plaque volume” value (apoE−/− mice [2]; controls 11.8 ± 1.2) was 7.4 ± 0.7 *10^7 µm^3, the “macrophage positive area of the carotid artery plaques (MOMA2)” value (apoE−/− mice [2]; controls 22.3 ± 4.1) was 6.2 ± 2.5 *10^3 µm^2 and the “relative macrophage content (corrected for lesion size), carotid artery” value (apoE−/− mice [2]; controls 46 ± 4%) was 25 ± 8%. For the same compound, the “macrophage positive area, aortic root” value (apoE−/− mice [2]; controls 92.0 ± 15.6) was 37.2 ± 8.7 *10^3 µm^2, the “aortic root average plaque size” value (apoE−/− mice [2]; controls 215.9 ± 24.6) was 157.0 ± 15.7 *10^3 µm^2 and the “reduction in carotid artery lesion size” value (apoE−/− mice [2]; mouse, in vivo) was “more than 70%”. For the same compound, the “change in carotid artery plaque size versus control” value (apoE−/− mice [2]; site of maximal stenosis) was −73%, the RT (hCCR2b; hCCR2, ref Vilums et al. [24]) was 714 min and the “lifetime (RT) on hCCR2” value (hCCR2b; hCCR2, ref [24]) was “more than 10 hours”. For the same compound, the Ki (hCCR2b; hCCR2, ref [24], read-out: affinity for human CCR2) was 2.4 nM, the KRI (hCCR2b; hCCR2b, ref Vilums et al. [24]) was 1.7 and the Kd (hCCR2b; hCCR2b, ref Vilums et al. [24]) was 0.175 nM. The koff (hCCR2b; hCCR2b, ref Vilums et al. [24]) was 2.33e-05 s⁻¹ and the kon (hCCR2b; hCCR2b, ref Vilums et al. [24]) was 130000 M⁻¹ s⁻¹.
